Measurements: patent publication US20210299134A1, “TREATMENT OF B CELL MALIGNANCIES” (MEI Pharma, Inc., priority 2018, published 2021)

Assays:
[1] = Plasma half-life; assay type: in vivo; conditions: human, oral, healthy volunteers and patients with B-cell malignancies
Text: It is known that administration of an oral drug over a period equivalent to approximately 7 half-lives is necessary to achieve steady state plasma concentrations required for optimal antitumor activity, and that a period of approximately 7 half-lives is needed to clear a drug from the plasma after treatment interruption. TREGs repopulation occurs approximately 14 days after the administration of a single dose of the anti-CD25 immunotoxin denileukin diftitox (ONTAK®), a drug known to suppress TREGs. Therefore, it was hypothesized that administration of Compound A35 at 60 mg/day for 7 consecutive days will result in steady-state plasma concentrations sufficient to inhibit PI3K5 in target malignant B-cells and that 21 days without treatment will be sufficient to repopulate TREGs, which comprises 7 days to clear Compound A35 from the plasma (˜7 half-lives) and 14 days for reconstitution of TREGs after Compound A35 is cleared from the plasma.

[2] = tested on: patients with relapsed B-cell malignancies (FL, CLL/SLL); assay: Phase 1b study of Compound A35 as single agent: disease response rate; assay type: in vivo, human
Experimental: (§1) An intermittent dosing schedule on days 1-7 of a 28-day cycle was then evaluated after 2 cycles of daily dosing, or ≥3 cycles of daily dosing to reduce the risk of immune-related adverse events. For this analysis the intermittent schedule (IS) group is defined as patients who received Compound A35 alone or with rituximab daily for 2 cycles then switched to an intermittent schedule of 1 week per cycle, and the continuous schedule (CS) group is defined as patients who never switched to intermittent dosing or switched to intermittent dosing in cycle 4 or later cycles. Toxicity on CS is managed by a switch to IS.
In an ongoing Phase 1b study, Compound A35 was administered as a single agent in patients with relapsed B-cell malignancies. Patients have been enrolled in 3 cohorts: • Group A: 31 patients enrolled in a dose escalation phase of the study, with Compound A35 administered as a single agent at a dose of 60, 120, and 180 mg/day. In Group A, all patients began receiving Compound A35 on a CS. Approximately 1.5 years after the start of the study, 17 ongoing patients were switched to the IS to prevent delayed immune-mediated toxicities after various duration of exposure on the CS. […]
31 patients received Compound A35 monotherapy at doses ≥60 mg daily on the CS, of whom 2 discontinued Compound A35 in the first 2 cycles of therapy and 29 received >2 cycles.
A very high rate of disease response was reported in 30 patients evaluable for response in the dose escalation cohort, both in FL and CLL/SLL, with no difference in response rate across the 3 doses evaluated (Table 2).

[3] = tested on: patients with relapsed B-cell malignancies; assay: Phase 1b study: patient dispositions on intermittent or continuous schedule; assay type: in vivo, human; conditions: Compound A35 alone arm
Experimental: as §1
In an ongoing Phase 1b study, Compound A35 was administered as a single agent in patients with relapsed B-cell malignancies. Patients have been enrolled in 3 cohorts: • Group A: 31 patients enrolled in a dose escalation phase of the study, with Compound A35 administered as a single agent at a dose of 60, 120, and 180 mg/day. In Group A, all patients began receiving Compound A35 on a CS. Approximately 1.5 years after the start of the study, 17 ongoing patients were switched to the IS to prevent delayed immune-mediated toxicities after various duration of exposure on the CS.
• Group B: 21 patients enrolled in an ongoing expansion cohort of up to 30 patients administered Compound A35 as a single agent at 60 mg/day on the CS for 2 cycles then switching to the IS in Cycle 3 (N=17) or later cycles (N=4).

[4] = All evaluable patients, 60 mg, n = 12
[5] = All evaluable patients, 120 mg, n = 12
[6] = All evaluable patients, 180 mg, n = 6
[7] = All evaluable patients, Total (all doses), n = 30
[8] = CLL/SLL, Total (all doses), n = 9
[9] = FL evaluable, Total (all doses), n = 21

CN1CCC(c2ccccc2CC(C)(C)Nc2nc(N3CCOCC3)nc(-n3c(C(F)F)nc4ccccc43)n2)CC1 [Compound A35]
half-life [1]: ~28 h | Morphologic and/or metabolic complete response [2, 4]: (42%) | Morphologic and/or metabolic complete response, number of patients [2, 4]: 5 | Overall response rate [2, 4]: (92%) | Overall response rate, number of patients [2, 4]: 11 | Morphologic and/or metabolic complete response [2, 5]: (33%) | Morphologic and/or metabolic complete response, number of patients [2, 5]: 4 | Overall response rate [2, 5]: (92%) | Overall response rate, number of patients [2, 5]: 11 | Morphologic and/or metabolic complete response, number of patients [2, 6]: 0 | Overall response rate [2, 6]: (83%) | Overall response rate, number of patients [2, 6]: 5 | Morphologic and/or metabolic complete response [2, 7]: (30%) | Morphologic and/or metabolic complete response, number of patients [2, 7]: 9 | Overall response rate [2, 7]: (90%) | Overall response rate, number of patients [2, 7]: 27 | Morphologic complete response ([2]; CLL/SLL, 60 mg, n = 6): (50%) | Morphologic complete response, number of patients ([2]; CLL/SLL, 60 mg, n = 6): 3 | Overall response rate ([2]; CLL/SLL, 60 mg, n = 6): (100%) | Overall response rate, number of patients ([2]; CLL/SLL, 60 mg, n = 6): 6 | Morphologic complete response, number of patients ([2]; CLL/SLL, 120 mg, n = 2): 0 | Overall response rate ([2]; CLL/SLL, 120 mg, n = 2): (100%) | Overall response rate, number of patients ([2]; CLL/SLL, 120 mg, n = 2): 2 | Morphologic complete response, number of patients ([2]; CLL/SLL, 180 mg, n = 1): 0 | Overall response rate ([2]; CLL/SLL, 180 mg, n = 1): (100%) | Overall response rate, number of patients ([2]; CLL/SLL, 180 mg, n = 1): 1 | Morphologic complete response [2, 8]: (33%) | Morphologic complete response, number of patients [2, 8]: 3 | Overall response rate [2, 8]: (100%) | Overall response rate, number of patients [2, 8]: 9 | Morphologic and/or metabolic complete response ([2]; FL evaluable, 60 mg, n = 6): (33%) | Morphologic and/or metabolic complete response, number of patients ([2]; FL evaluable, 60 mg, n = 6): 2 | Overall response rate ([2]; FL evaluable, 60 mg, n = 6): (83%) | Overall response rate, number of patients ([2]; FL evaluable, 60 mg, n = 6): 5 | Morphologic and/or metabolic complete response ([2]; FL evaluable, 120 mg, n = 10): (40%) | Morphologic and/or metabolic complete response, number of patients ([2]; FL evaluable, 120 mg, n = 10): 4 | Overall response rate ([2]; FL evaluable, 120 mg, n = 10): (90%) | Overall response rate, number of patients ([2]; FL evaluable, 120 mg, n = 10): 9 | Morphologic and/or metabolic complete response, number of patients ([2]; FL evaluable, 180 mg, n = 5): 0 | Overall response rate ([2]; FL evaluable, 180 mg, n = 5): (80%) | Overall response rate, number of patients ([2]; FL evaluable, 180 mg, n = 5): 4 | Morphologic and/or metabolic complete response [2, 9]: (21%) | Morphologic and/or metabolic complete response, number of patients [2, 9]: 6 | Overall response rate [2, 9]: (86%) | Overall response rate, number of patients [2, 9]: 18 | Discontinued therapy: Adverse event ([3]; CS Group (N = 25)): (16%) | Discontinued therapy: Adverse event, number of patients ([3]; CS Group (N = 25)): 4 | Discontinued therapy: Progressive disease ([3]; CS Group (N = 25)): (20%) | Discontinued therapy: Progressive disease, number of patients ([3]; CS Group (N = 25)): 5 | Discontinued therapy: Adverse event, number of patients ([3]; IS Group (N = 15)): 0 | Discontinued therapy: Progressive disease ([3]; IS Group (N = 15)): (20%) | Discontinued therapy: Progressive disease, number of patients ([3]; IS Group (N = 15)): 3
